This passage reports melting point results from patent publication US20040053786A1, “Insecticidal 1,8-naphthalenedicarboxamides” (priority 2000, published 2004).

What is called melting point is the temperature, or range, at which the solid turns liquid.

Compound `CNC(=O)c1cccc2cccc(NC(=O)c3cccs3)c12` [Compound 120, N-methyl 8-[(2-thienyl)carbonylamino]-1-naphthalenecarboxamide] showed a melting point of 215 °C.
